Assay results from patent US11591294B2, “Fluorenone/fluorenol derivatives for aqueous redox flow batteries” (Battelle Memorial Institute, priority 2019, dated 2023).
≈ marks a conversion by molar mass, not a printed value. Where two headings read alike, the source gives them in different places. One block for each compound: values may come before it.

Columns and labels:
[1] = Solubility test; assay type: physicochemical
Protocol: Solubility test: The dissolving solvent was added drop by drop to 1 mmol of testing powder with intermittent agitation with VWR Vertex mixer, until all powder was dissolved. The total mass of the solution was recorded. A glass micro syringe was used to transfer 100 μL of the solution directly to a tared weight glass vial for mass measurement. Specific gravity of the as-obtained solution was calculated, then the total volume of the as-obtained solution was calculated using calculated density and recorded total solution mass. Last, molarity was calculated based on calculated total solution volume (Duan et al., ACS Energy Letters 2017, 2:1156-1161).
The solubilities of as-synthesized FLs in basic solution, 2 M NaOH/KOH, was investigated. […] The energy density is almost double that of a conventional vanadium electrolyte.

[2] = Post-cycling analysis of anolyte (NMR, mass spectroscopy); assay type: physicochemical; conditions: after 6-month operation, 1.36 M anolyte
Protocol: An additional test was conducted for six months (FIG. 18). […] At about cycle 650, catholyte precipitation was noticed, and replaced with fresh catholyte. No material degradation was detected by NMR or mass-spectroscopy (FIGS. 21 and 22).
For the reason that charged anolyte is usually sensitive to 02, flow battery tests of organic based electrolyte reported so far are conducted in inert atmosphere, which is a significant hurdle to their practical applications. We submit another battery test without significant deaerating treatment at reasonable CE and EE (FIGS. 34 and 35). The 1 M battery was assembled without N2 atmosphere, sealed with a stopper and parafilm, and no further deoxygenation was conducted before charging. The battery operated stably at 20 mA/cm^2 for 2 weeks. The observed capacity fluctuation was attributed to temperature changes on a daily basis. […] The first cycle low CE was attributed to charged material consuming existing 02 in the cell system. As expected, the first cycle charging capacity was a little higher than same amount of substance in a battery inside the purge box (without 02 induced discharge influence). However, no irreversible side reactions occurred and long-term cycling occurred analogous to tests conducted in an inert atmosphere purge box. […]

[3] = 2M KOH column; literature data provided as a comparison (tested in KOH); cited from earlier work
[4] = Cyclic voltammetry in aqueous 1 M NaOH; assay type: physicochemical; conditions: 1 M NaOH solution
Protocol: Electrochemical tests: CV measurements in aqueous phase were performed using a three-electrode configuration consisting of a glassy carbon working electrode (3 mm diameter), a glassy carbon counter electrode and an Ag/AgCl reference electrode. The electrolytes of 10 mM redox-active materials in 1.0 M NaOH were used. CV data were collected using a CHI760D potentiostat (CH Instruments) at a scan rate of 100 mV s^−1 (Hollas et al., Nature Energy 2018, 3:508-514). CV measurements in nonaqueous phase were performed using a three-electrode configuration consisting of a glassy carbon working electrode (3 mm diameter), a glassy carbon counter electrode and an Ag/AgNO3 (10 mM in Acetonitrile) as reference electrode or Ag wire as pseudo reference electrode (Inzelt et al., Handbook of Reference Electrodes, 2013, Springer). Tests were carried out in an argon-filled Mbraun glove box (Stratham, N.H., USA).
In view of the DFT calculation, it was theorized that functionalization of the FL ring structures with electron withdrawing groups such as —F, -sulfonamide, and —SO3−, among others, would shift the equilibrium constant to increase the concentration of deprotonated FL-OH anion/dianion relative to FL-OH, thereby improving the two-electron redox-reversibility of FLs. […] As expected, the CV curves with two pairs of peaks become clear and sharp with adding stronger electron withdrawing groups. […]

[5] = 2 M KOH solution, aqueous buffer, thermodynamic from solid, 2M KOH, read-out: Solubility
[6] = 2 M NaOH solution, aqueous buffer, thermodynamic from solid, 2M NaOH, read-out: Solubility

solubility ([1]; 2M NaOH): 150 mM
SMILES: O=C(O)c1cc(F)cc2c1-c1c(cc(F)cc1S(=O)(=O)[O-])C2=O.[K+] [Compound 27F4C5SFL]

solubility ([1]; 2M KOH): trace
solubility ([1]; 2M NaOH): trace
SMILES: O=C1c2cc(Br)cc(S(=O)(=O)[O-])c2-c2c1cc(Br)cc2S(=O)(=O)[O-].[K+].[K+] [Compound 27Br4SFL]

solubility ([1]; thermodynamic from solid, with agitation, copious precipitate after sitting overnight, read-out: Solubility (transparent homogeneous solution)): ≤ 1400 mM
SMILES: O=C(O)c1cc(F)cc2c1-c1ccc(F)cc1C2=O [Compound 27F4CFL]

solubility [1, 5]: 700 mM
solubility [1, 6]: 1100 mM
SMILES: O=C(O)c1ccc2c(c1)C(=O)c1cc(S(=O)(=O)[O-])ccc1-2.[K+] [Compound 2C7SFL]

SMILES: O=C(O)c1cc(S(=O)(=O)O)cc2c1-c1ccc(S(=O)(=O)O)cc1C2=O [Compound 27S4CFL, 9-oxo-2,7-sulfo-9H-fluorene-4-carboxylic acid]
solubility ([1]; 2M NaOH): 800 mM (≈ 307 mg/mL)

solubility [1, 5]: 1300 mM (≈ 396 mg/mL)
solubility [1, 6]: 1500 mM (≈ 456 mg/mL)
available electron concentration ([1]; two-electron redox reaction, from solubility): ~3 M
SMILES: O=C(O)c1cccc2c1-c1ccc(S(=O)(=O)O)cc1C2=O [Compound 4C7SFL, 9-Oxo-7-sulfo-9H-fluorene-4-carboxylic acid]
post-cycling analysis (in words) [2]: small, yet observable new aromatic peaks attributed to de-sulfonation on the fluorenone core structure

SMILES: O=C(O)c1cccc2c1-c1ccccc1C2=O [Compound 4CFL]
solubility [3]: 650 mM (≈ 146 mg/mL)

reversible peak potential [4]: ~−0.85 V vs Ag/AgCl
solubility [1, 6]: 1000 mM (≈ 223 mg/mL)
SMILES: N#Cc1nc2c(nc1O)-c1ccccc1C2=O [Compound 14N2CN3OHFL, 3-hydroxy-9-oxo-9H-indeno[1,2-b]pyrazine-2-carbonitrile]

solubility ([1]; 2 M KOH solution, aqueous buffer, thermodynamic from solid, read-out: Solubility): < 50 mM
solubility ([1]; 2 M NaOH solution, aqueous buffer, thermodynamic from solid, read-out: Solubility): < 50 mM
solubility ([1]; thermodynamic from solid, disodium salt in pure water, read-out: Solubility): ≤ 240 mM
SMILES: O=C1c2cc(S(=O)(=O)[O-])ccc2-c2ccc(S(=O)(=O)[O-])cc21.[K+].[K+] [DSFL, Potassium 9-oxo-9H-fluorene-2,7-disulfonate]

solubility (in words) [1]: limited solubility
SMILES: O=C1c2cccnc2-c2ncccc21 [Compound 45NFL, 4,5-diazafluoren-9-one]

SMILES: O=C(O)c1ccc2c(c1)C(=O)c1ccccc1-2 [Compound 2CFL]
solubility [3]: 800 mM (≈ 179 mg/mL)

SMILES: O=C1c2cc(O)ccc2-c2ccc(O)cc21 [DHFL, 9-oxo-2,7-dihydroxy-9H-fluorene]
solubility ([1]; pure water with 2 eq. NaOH, aqueous buffer, thermodynamic from solid, with 2 eq. NaOH in pure water, read-out: Solubility): 600 mM (≈ 127 mg/mL)

solubility ([1]; 2M KOH): 900 mM (≈ 241 mg/mL)
solubility ([1]; 2M NaOH): 40 mM (≈ 10.7 mg/mL)
SMILES: O=C(O)c1ccc2c(c1)C(=O)c1cc(C(=O)O)ccc1-2 [DCFL]

solubility ([1]; 2M KOH): trace
solubility ([1]; 2M NaOH): trace
SMILES: O=C1c2cc(OCCOCCOCCO)ccc2-c2ccc(OCCOCCOCCO)cc21 [PEG-FL]
